In patent publication US9139581B2 (PORTOLA PHARMACEUTICALS, INC., priority 2008, dated 2015):

Each compound was assayed against T1, full length active recombinant SYK enzyme (Homo sapiens, UniProt P43405) (assay: Inhibition of Syk tyrosine phosphorylation activity (LANCE TR-FRET)). Conditions: Table 3; 1 nM SYK, 100 μM ATP; read-out: Syk IC50 code.
T1 construct: full length active recombinant SYK enzyme (Millipore, Calif.); purchased Millipore
Type: biochemical
Experimental: The in vitro and in vivo human syk activities of the inventive compounds can be determined by various procedures known in the art, such as a test for their ability to inhibit the activity of human plasma syk. […] Inhibition of Syk Tyrosine Phosphorylation Activity Potency of candidate molecules for inhibiting syk tyrosine phosphorylation activity is assessed by measuring the ability of a test compound to inhibit syk-mediated tyrosine phosphorylation of a syk-specific substrate. SYK tyrosine phosphorylation activity is measured using the LANCETM Technology developed by Perkin Elmer Life and Analytical Sciences (Boston, Mass.). LANCETM refers to homogeneous time resolved fluorometry applications using techniques such as time-resolved fluorescence resonance energy transfer assay (TR-FRET) (see generally for procedures in Perkin Elmer Application Note-How to Optimize a Tyrosine Kinase Assay Using Time Resolved Fluorescence-Based LANCE Detection, wwww.perkinelmer.com/lifesciences). The assay principle involves detection of a phosphorylated substrate using energy transfer from a phosphospecific europium-labeled antibody to streptavidin-allophycocyanin as an acceptor. To test the ability of candidate molecules to inhibit SYK tyrosine phosphorylation activity, molecules are reconstituted in 30% DMSO and serially diluted 1:3 with the final dilution containing DMSO in the absence of the candidate molecule. The final DMSO concentration in the assay is 3%. Kinase assays are performed as a two part reaction. The first reaction is a kinase reaction and which comprises of a candidate molecule, full length active recombinant SYK enzyme (Millipore, Calif.) and biotin-labeled SYK-specific substrate biotin-[…]-OH. The second reaction involves termination of the kinase reaction and the simultaneous addition of the detection reagents-europium-labeled anti-phosphotyrosine reagent (Eu-W1024-PY100, Perkin Elmer, Boston, Mass.) and Streptavidin-Allophycocyanin detection reagent (SA-APC, Prozyme, Calif.). The kinase reaction is performed in a black U-bottom 96-well microtitre plate. […] The reaction is allowed to proceed for 1 hour at room temperature. […] The detection reagents are added to the reaction mixture at the following dilutions-1:500 for Eu-W1024-PY100 and 1:250 for SA-APC. The kinase reaction is terminated by the addition of 50 μL quench buffer containing the detection reagents. The detection is allowed to proceed for 1 hr at room temperature. Detection of the phosphorlated substrate in the absence and presence of inhibitors is measured in the TR-FRET instrument, Analyst HT ([…], Sunnyvale, Calif.) and the condition for measurements are set up using CriterionHost Release 2.0 ([…], Sunnyvale, Calif.). […] IC50s were derived by non-linear regression analysis.
With `CC(=O)N1CCN(c2ccc(Nc3nc(NC4CC4)c4c(C#N)c[nH]c4n3)cc2)CC1` [Example 107, 2-(4-(4-acetylpiperazin-1-yl)phenylamino)-4-(cyclopropylamino)-7H-pyrrolo[2,3-d]pyrimidine-5-carbonitrile] the IC50 was 10 to 100 nM.
For `CC(=O)N1CCN(c2ccc(Nc3ncc(F)c(N4CCC(CC(N)=O)CC4)n3)cc2)CC1` [Example 126, 2-(1-(2-(4-(4-acetylpiperazin-1-yl)phenylamino)-5-fluoropyrimidin-4-yl)piperidin-4-yl)acetamide], the IC50 was 100 to 1000 nM.
`CC(=O)N1CCN(c2ccc(Nc3ncc(F)c(N4CCC(N)CC4)n3)cc2)CC1` [Example 128, 1-(4-(4-(4-(4-aminopiperidin-1-yl)-5-fluoropyrimidin-2-ylamino)phenyl)piperazin-1-yl)ethanone] was tested, and the IC50 was > 1000 nM.
For `CCOC(=O)CC(N)C1CCN(c2nc(Nc3ccc4c(c3)CCC(=O)N4)ncc2F)CC1` (stereo not shown) [Example 134, Ethyl 3-amino-3-(1-(5-fluoro-2-(2-oxo-1,2,3,4-tetrahydroquinolin-6-ylamino)pyrimidin-4-yl)piperidin-4-yl)propanoate], the IC50 was 100 to 1000 nM.
Compound `CC(=O)N1CCN(c2ccc(Nc3nc(NCCOCCN)c4cc[nH]c4n3)cc2)CC1` [Example 93, 1-(4-(4-(4-(2-(2-aminoethoxy)amino)-7H-pyrrolo[2,3-d]pyrimidin-2-ylamino)phenyl)piperazin-1-yl)ethanone] has an IC50 of 100 to 1000 nM.
With `CNc1nc(Nc2ccc(N(C)C(=O)C3CC3)cc2)nc2[nH]ccc12` [Example 82, N-(4-(4-(methylamino)-7H-pyrrolo[2,3-d]pyrimidin-2-ylamino)phenyl)-N-methylcyclopropanecarboxamide] the IC50 was 100 to 1000 nM.
With `COC(=O)N(C)c1ccc(Nc2nc(NC3CC3)c3cc[nH]c3n2)cc1` [Example 73] the IC50 was 100 to 1000 nM.
`CC(=O)N(C)c1ccc(Nc2nc(NCCN)c3cc[nH]c3n2)cc1` [Example 64, N-(4-(4-(2-aminoethylamino)-7H-pyrrolo[2,3-d]pyrimidin-2-ylamino)phenyl)-N-methylacetamide] was tested, and the IC50 was 100 to 1000 nM.
In the case of `CC(=O)N1CCN(c2ccc(Nc3ncc(F)c(N4CCC(NC(=O)CC#N)CC4)n3)cc2)CC1` [Example 136, N-(1-(2-(4-(4-acetylpiperazin-1-yl)phenylamino)-5-fluoropyrimidin-4-yl)piperidin-4-yl)-2-cyanoacetamide], the IC50 is reported as > 1000 nM.
For `O=C1CNc2nc(Nc3ccc4cn[nH]c4c3)nc(NC3CCC3)c21` [Example 51, 2-(1H-indazol-6-ylamino)-4-(cyclobutylamino)-6,7-dihydropyrrolo[2,3-d]pyrimidin-5-one], the IC50 was 100 to 1000 nM.
`CC(=O)N1CCN(c2ccc(Nc3nc(Nc4cccc(S(N)(=O)=O)c4)c4cc[nH]c4n3)cc2)CC1` [Example 96A, 3-(2-(4-(4-acetylpiperazin-1-yl)phenylamino)-7H-pyrrolo[2,3-d]pyrimidin-4-ylamino)benzenesulfonamide] gave an IC50 of 100 to 1000 nM.
For `CN(C(=O)C1CC1)c1ccc(Nc2nc(NC3CCC3)c3cc[nH]c3n2)cc1` [Example 80, N-(4-(4-(cyclobutylamino)-7H-pyrrolo[2,3-d]pyrimidin-2-ylamino)phenyl)-N-methylcyclopropanecarboxamide], the IC50 was 100 to 1000 nM.
With `CC(=O)N1CCN(c2ccc(Nc3nc(NCC4CCNCC4)c4c(-c5ccncc5)c[nH]c4n3)cc2)CC1` [Example 44, 1-(4-(4-(4-(piperidin-4-ylmethylamino)-5-(pyridin-4-yl)-7H-pyrrolo[2,3-d]pyrimidin-2-ylamino)phenyl)piperazin-1-yl)ethanone] the IC50 was > 1000 nM.
Work on `CCCCOC(C)c1c[nH]c2nc(Nc3ccc4cn[nH]c4c3)nc(NC3CC3)c12` (stereo not shown) [Example 41, 5-(1-butoxyethyl)-N4-cyclopropyl-N2-(1H-indazol-6-yl)-7H-pyrrolo[2,3-d]pyrimidine-2,4-diamine] yielded an IC50 of 100 to 1000 nM.
Compound `COCCNc1nc(Nc2ccc(N3CCN(C(C)=O)CC3)cc2)nc2[nH]ccc12` [Example 90, 1-(4-(4-(4-(2-methoxyethylamino)-7H-pyrrolo[2,3-d]pyrimidin-2-ylamino)phenyl)piperazin-1-yl)ethanone] has an IC50 of 100 to 1000 nM.
For `CC(=O)N1CCN(c2ccc(Nc3ncc(F)c(N4CCNCC4)n3)cc2)CC1` [Example 124, 1-(4-(4-(5-fluoro-4-(piperazin-1-yl)pyrimidin-2-ylamino)phenyl)piperazin-1-yl)ethanone], the IC50 was > 1000 nM.
In the case of `O=C(O)CC1CCN(c2nc(Nc3ccc4c(c3)CCC(=O)N4)nc3[nH]ccc23)CC1` [Example 120, 2-(1-(2-(2-oxo-1,2,3,4-tetrahydroquinolin-6-ylamino)-7H-pyrrolo[2,3-d]pyrimidin-4-yl)piperidin-4-yl)acetic acid], the IC50 is reported as > 1000 nM.
In the case of `NC(=O)c1cnc(-[n+]2ccn(-c3ccc(N)cc3)c2)nc1NC1CC1` [Example 6, 1-(4-aminophenyl)-3-(5-carbamoyl-4-(cyclopropylamino)pyrimidin-2-yl)-1H-imidazol-3-ium], the IC50 is reported as > 1000 nM.
With `NS(=O)(=O)c1cccc(Nc2nc(Nc3ccc(N4CCNCC4)cc3)nc3[nH]ccc23)c1` [Example 96B, 3-(2-(4-(piperazin-1-yl)phenylamino)-7H-pyrrolo[2,3-d]pyrimidin-4-ylamino)benzenesulfonamide] the IC50 was 10 to 100 nM.
Compound `Clc1c[nH]c2nc(Nc3ccc4cn[nH]c4c3)nc(NC3CCC3)c12` [Example 50, 5-chloro-N4-cyclobutyl-N2-(1H-indazol-6-yl)-7H-pyrrolo[2,3-d]pyrimidine-2,4-diamine] has an IC50 of 1 to 10 nM.
Work on `N#Cc1c[nH]c2nc(Nc3ccc4cn[nH]c4c3)nc(NC3CC3)c12` [Example 40, 2-(1H-indazol-6-ylamino)-4-(cyclopropylamino)-7H-pyrrolo[2,3-d]pyrimidine-5-carbonitrile] yielded an IC50 of 10 to 100 nM.
With `CC(=O)N1CCN(c2ccc(Nc3nc(NC4CCC(N)CC4)c4cc[nH]c4n3)cc2)CC1` (stereo not shown) [Example 66, 1-(4-(4-(4-(4-aminocyclohexylamino)-7H-pyrrolo[2,3-d]pyrimidin-2-ylamino)phenyl)piperazin-1-yl)ethanone] the IC50 was 10 to 100 nM.
Compound `CC(=O)N1CCN(c2ccc(Nc3ncc(Cl)c(N4CCC(CN)CC4)n3)cc2)CC1` [Example 122, 1-(4-(4-(4-(4-(aminomethyl)piperidin-1-yl)-5-chloropyrimidin-2-ylamino)phenyl)piperazin-1-yl)ethanone] has an IC50 of 10 to 100 nM.
`NCC1CCN(c2nc(Nc3ccc(C(=O)O)cc3)ncc2F)CC1` [Example 131, 4-(4-(4-(aminomethyl)piperidin-1-yl)-5-fluoropyrimidin-2-ylamino)benzoic acid] was tested, and the IC50 was 10 to 100 nM.
In the case of `CC(=O)N(C)c1ccc(Nc2nc(NCCCCN)c3cc[nH]c3n2)cc1` [Example 62, N-(4-(4-(4-aminobutylamino)-7H-pyrrolo[2,3-d]pyrimidin-2-ylamino)phenyl)-N-methylacetamide], the IC50 is reported as 10 to 100 nM.
For `CN(C)CC(=O)N(C)c1ccc(Nc2nc(NC3CCC3)c3cc[nH]c3n2)cc1` [Example 84, N-(4-(4-(cyclobutylamino)-7H-pyrrolo[2,3-d]pyrimidin-2-ylamino)phenyl)-2-(dimethlamino)-N-methylacetamide], the IC50 was 100 to 1000 nM.
`NC(=O)CC1CCN(c2nc(Nc3ccc4c(c3)CCC(=O)N4)nc3[nH]ccc23)CC1` [Example 121, 2-(1-(2-(2-oxo-1,2,3,4-tetrahydroquinolin-6-ylamino)-7H-pyrrolo[2,3-d]pyrimidin-4-yl)piperidin-4-yl)acetamide] showed an IC50 of 100 to 1000 nM.

Same assay, conditions: Table 4; 1 nM SYK, 100 μM ATP; read-out: syk IC50
`c1cc2c(N3CCCCC3)nc(Nc3ccc(N4CCNCC4)cc3)nc2[nH]1` [Example 19, N-(4-(piperazin-1-yl)phenyl)-4-(piperidin-1-yl)-7H-pyrrolo[2,3-d]pyrimidin-2-amine] was tested, and the IC50 was > 1000 nM.
In the case of `CC(=O)N1CCN(c2ccc(Nc3nc(N4CCCCC4)c4cc[nH]c4n3)cc2)CC1` [Example 20, 1-(4-(4-(4-(piperidin-1-yl)-7H-pyrrolo[2,3-d]pyrimidin-2-ylamino)phenyl)piperazin-1-yl)ethanone], the IC50 is reported as > 1000 nM.
In the case of `CC(=O)N1CCN(c2ccc(Nc3ncc(F)c(N4CCCC(C(N)=O)C4)n3)cc2)CC1` (stereo not shown) [Example 27, 1-(2-(4-(4-acetylpiperazin-1-yl)phenylamino)-5-fluoropyrimidin-4-yl)piperidine-3-carboxamide], the IC50 is reported as > 1000 nM.
`NC(=O)C1CCCN(c2nc(Nc3ccc4cn[nH]c4c3)ncc2F)C1` (stereo not shown) [Example 26, 1-(2-(1H-indazol-6-ylamino)-5-fluoropyrimidin-4-yl)piperidine-3-carboxamide] gave an IC50 of 100 to 1000 nM.
